Assay results: patent US20170112861A1, “DRUG DELIVERY ENHANCER COMPRISING SUBSTANCE FOR ACTIVATING LYSOPHOSPHOLIPID RECEPTORS” (Osaka University, priority 2014, published 2017)

What was measured:
[1] = tested on: tumor blood vessels of LLC cell tumors; test: Structural changes in tumor blood vessels after S1P administration (anti-CD31 immunostaining); format: in vivo; settings: LLC tumor-bearing mice, S1P 0.3 mg/kg tail vein once daily for three days, 24 hours after final administration
Method: LLC cells were subcutaneously inoculated into C57BL/6 […] mice aged 8 weeks (females, SLC, Inc.) in the same manner as in Example 1. S1P (Avanti Polar Lipids, Inc.) was dissolved in PBS at 10 mM and the solution was stored at -30° C. as a stock solution. Before use, the stock solution was thawed and homogenized with an ultrasonic cleaner (SND Co., Ltd.) for 1 minute. The solution was diluted in PBS before administration so that the concentration of S1P was 0.3 mg/kg in 100 μL PBS. The prepared solution was used for S1P administration. Mice on day 9 post-inoculation of LLC cells (individuals with a tumor volume of 60 to 80 mm^3) were subjected to the experiment. The mice were divided into two groups: control group and S1P group (n=3). From the day of grouping, S1P was administered to the tail vein of the S1P group mice at a dose of 0.3 mg/kg in 100 μL PBS once daily for consecutive three days. To the control group mice, PBS (100 μL) was administered instead of S1P. At 24 hours after the final administration, the tumors were harvested from the mice, and the specimens of tumor blood vessels were prepared in the same manner as in Example 1. The specimens were observed and photographed under a confocal laser microscope (Leica).

[2] = tested on: Mouse pancreatic vascular endothelial cell line (MS-1); test: In vitro barrier function of endothelial cell-cell junctions (ECIS-Zθ, resistance between cells Rb); format: cell-based; settings: MS-1 cells, 10 μM
Method: In vitro barrier function of the cell-cell junctions of vascular endothelial cells in the presence of LPA or VPC 31144 (S) was analyzed using a real-time cell ECIS-Zθ analyzer (Applied Biophysics).
LPA and VPC 31144 (S) were each dissolved in 50% ethanol as a 10 mM LPA stock solution and stored at −30° C. Before use, the LPA stock solution was thawed and homogenized with an ultrasonic cleaner (SND Co., Ltd.) for 1 minute. The solution was diluted in a serum-free culture medium supplemented with 0.1% BSA to a concentration of 10 μM.
Mouse pancreatic vascular endothelial cell line (MS-1) was used. The cells were suspended in DMEM (Sigma) containing 5% FBS. The cell suspension was seeded on a well plate with electrodes (8W10E+, 8 wells) specially designed for the analyzer at a density of 1×10^5 cells in 400 μL per well, and the cells were cultured overnight in an incubator to confluence. The medium was replaced by serum-free culture medium containing 0.1% BSA, and the cells were incubated for 4 hours. The medium was replaced by culture medium (serum-free culture medium containing 0.1% BSA) containing 10 μM LPA or VPC 31144 (S). The medium of the control cultures was replaced by serum-free culture medium containing 0.1% BSA. After replacement of the medium, resistance between cells (Rb) was measured in real time to evaluate the barrier function.

SMILES	formation of a network of tumor blood vessels [1]	speed of barrier function increase ([2]; immediately after addition, compared with LPA)	electric resistance (Rb), barrier function in endothelial cells ([2]; serum-free medium with 0.1% BSA, vs control)
CCCCCCCCCCCCC/C=C/[C@@H](O)[C@@H](N)COP(=O)(O)O [S1P, sphingosine-1-phosphate]	the formation of a network of tumor blood vessels was induced	–	–
CCCCCCCC/C=C\CCCCCCCC(=O)N[C@@H](CO)COP(=O)(O)O [VPC 31144, N-{(1S)-2-hydroxy-1-[(phosphonooxy)methyl]ethyl}(9Z) octadec-9-enamide]	–	more rapidly increased the barrier function immediately after the administration, as compared with addition of LPA	also increased the barrier function in endothelial cells
